Tested on: TNFα
Test: Mouse TNF alpha quantification assay (LPS-stimulated RAW 264.7, ELISA)
Type: cell-based
Details: 30 μM; RAW 264.7 murine leukemia virus transformed macrophage cell lines, LPS stimulation
Method: (§1) Cell lines: Abelson murine leukemia virus transformed macrophage cell line RAW 264.7 was purchased from ATCC and grown in complete DMEM-High Glucose medium supplemented with penicillin (100 U/mL), streptomycin (100 μg/mL), and 10% heat-inactivated FBS at 37° C. in a humidified incubator with 5% CO2.
(§2) Method: Cells were plated at 40000 cells/well density in a 96-wells plate. After a 3-hour incubation, macrophages were starved with DMEM plus 0.5% FBS o/n. The next day the small molecules to be tested were added to the cells in the final concentration of 30 μM (with 0.3% DMSO) 3 hours prior to LPS stimulation (100 ng/ml). After LPS stimulation cells were incubated at 37° C. for 16h. At the end of the incubation period, culture media were collected and production of LPS-induced TNFα and IL6 cytokine was measured using ELISA detection kits.
(§3) Sandwich ELISA: The ELISA Immunoassays Quantikine Mouse TNF-alpha (catalog number MTA00B) and IL6 (catalog number M6000B) were purchased from R&D Systems Inc., Minneapolis, Minn. These 4.5 hours solid phase ELISAs were used to measure mouse TNFα or IL6 levels in macrophages culture supernatants. Assays were executed according to the manufacturer specifications.

Row | SMILES | TNF-α % Inhibition at 30 μM
1 | Cc1sc2c(O)nc(-c3ccccn3)nc2c1-c1ccccc1 | A (A = 1-25% inhibition)
2 | Cc1sc2c(O)nc(-c3ccccn3)nc2c1Br [drawing 2383] | 0 (0 = 0% inhibition)

Same assay, conditions: Mus musculus, RAW264.7, 30 μM; RAW 264.7 murine leukemia virus transformed macrophage cell lines, LPS stimulation; read-out: TNF-α % Inhibition at 30 μM

Row | SMILES | inhibition at 30 µM [%]
3 | OC[C@H]1O[C@@H](c2csc3c2N=C(c2ccccn2)NC3O)[C@H](O)[C@@H]1O (stereo partly shown) [drawing 2388] | 26 to 50
4 | Cc1cc2nc(-c3ccccn3)nc(O)c2s1 [drawing 2263] | 1 to 25
5 | Cc1sc2c(N)nc(-c3ccccn3)nc2c1-c1ccccc1Cl | 51 to 75
6 | Oc1nc(-c2ccccn2)nc2c(-c3cccnc3)c(C(F)(F)F)sc12 | 0
7 | Cn1cc(-c2nc(C(=O)Nc3nnc(-c4ccccn4)[nH]3)cs2)cn1 | 0
8 | CC(C)Cc1csc2c(N)nc(-c3ccccn3)nc12 | 76 to 100
9 | O=C(O)c1csc2nc(-c3ccccn3)nc(O)c12 | 1 to 25
10 | Nc1nc(-c2ccccn2)nc2c(C3CCCC3)csc12 | 26 to 50
11 | COC(=O)c1csc2nc(-c3ccccn3)nc(O)c12 | 0
12 | Nc1nc(-c2ccccn2)nc2c(C3CCCCC3)csc12 | 0
13 | Nc1cccc(-c2csc3c(N)nc(-c4ccccn4)nc23)n1 | 26 to 50
14 | COCC(C)Nc1nc(-c2ccccc2)nc2sc(-c3ccncc3)c(-c3ccccc3)c12 (stereo not shown) | 26 to 50
15 | O=C(NCCc1cnc(O)nc1)c1csc2nc(-c3ccccn3)nc(N3CCSCC3)c12 [drawing 2281] | 0
16 | COc1ccc(CCNC(=O)c2csc3nc(-c4ccccn4)nc(N4CCSCC4)c23)cn1 [drawing 2280] | 0

Molecular target: Rho-A (Homo sapiens (Human), UniProt P61586)
Sequence (P61586 whole entry): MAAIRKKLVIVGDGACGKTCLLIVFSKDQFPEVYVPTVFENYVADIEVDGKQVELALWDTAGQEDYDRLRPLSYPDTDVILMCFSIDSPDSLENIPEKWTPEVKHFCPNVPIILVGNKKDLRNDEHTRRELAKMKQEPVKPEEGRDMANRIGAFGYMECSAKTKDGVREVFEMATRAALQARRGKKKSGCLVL
Test: Rac and Rho inhibition assay
Type: binding
Details: read-out: Rho-A % Inh.
Method: (§4) Buffer-I: • 50 mM Tris, pH 7.5 • 150 mM NaCl (optional) • 1 mM MgCl2 • 1 mM DTT. • KRas G12D mutant protein was expressed as a His-tagged protein. Purified His-KRas G12D protein was diluted in buffer-I to a final concentration of 3-10 μg/ml. • 200 μl of the diluted His-KRas G12D protein was added to a nickel coated 96 well plate and incubated overnight at 4° C. • The next day, wells were washed 3× in 200 μl of Buffer-I. • Then 200 μl of Buffer-I were added to each well in the presence of 1% DMSO. • Tested compounds were added to the protein-coated wells at a concentration of 20 μM, and incubated for 3 hours at room temperature. While performing IC50 measurements a serial dilution of all tested concentrations was prepared.
(§5) Then 22 μl of Cy3-GTP or Cy5-GTP was added to each well. The labeled GTP was incubated for 45 min. at room temperature. • Following GTP incubation, wells were washed 3× in Buffer-I, and 200 μl of Buffer-I were added to each well. • Following washes, the amount of bound labeled-GTP was measured with an Eppendorf AF2200 plate reader.
(§6) By substituting KRas G12D mutant protein with either Rac-1 or Rho-A under the assay conditions described in Example 5, Rac-1 and Rho-A inhibition, respectively, were each determined.

Row | SMILES | inhibition at 20 µM [%]
17 | Oc1nc(-c2ccccn2)nc2c(C3CC3)csc12 | 51 to 75
18 | O=C(c1csc2c(O)nc(-c3ccccn3)nc12)N1CCN(c2ccc(O)c(O)c2)CC1 | 76 to 100
19 | Oc1nc(-c2ccccn2)nc2c(-c3ccc4c(c3)CCCO4)csc12 | 51 to 75
20 | COc1cnc(CNC(=O)c2c(C)sc3c(O)nc(-c4ccccn4)nc23)[nH]c1=O | 1 to 25
21 | COCCNc1nc(-c2nccn2C)nc2sc(-c3ccccc3)c(-c3ccccc3)c12 [drawing 3879] | 51 to 75
22 | O=C(NCCc1cnc(O)nc1)c1csc2nc(-c3ccccn3)nc(N3CCSCC3)c12 [drawing 3752] | 51 to 75
23 | Oc1nc(-c2ccccn2)nc2c(-c3cc(C(F)(F)F)ccc3F)csc12 | 1 to 25
24 | COCCCCNC(=O)c1csc2nc(-c3ccccn3)nc(O)c12 | 1 to 25
25 | COc1cc(-c2csc3c(O)nc(-c4ccccn4)nc23)cnc1C(F)(F)F | 51 to 75
26 | CCC1N=C(C)C=C1c1csc2c(O)nc(-c3ccccn3)nc12 (stereo not shown) | 76 to 100
27 | CN(C)CCOc1cccc(-c2csc3c(O)nc(-c4ccccn4)nc23)c1 | 76 to 100
28 | Oc1nc(-c2ccccn2)nc2c(-c3ccccc3C(F)F)csc12 | 76 to 100
29 | COC(=O)c1c(C)sc2nc(-c3ccccn3)nc(N)c12 | 51 to 75
30 | O=C(c1csc2c(O)nc(-c3ccccn3)nc12)N1CCNC(c2ccc(Cl)cc2)C1 (stereo not shown) | 76 to 100

Molecular target: Rac-1 (Homo sapiens (Human), UniProt P63000)
Test: Rac and Rho inhibition assay
Type: binding
Details: read-out: Rac-1 % Inh.
Method: as §4, §5, §6

Row | SMILES | inhibition at 20 µM [%]
31 | O=C(c1csc2c(O)nc(-c3ccccn3)nc12)N1CCN(c2ccc(O)c(O)c2)CC1 | 76 to 100
32 | COc1cnc(CNC(=O)c2c(C)sc3c(O)nc(-c4ccccn4)nc23)[nH]c1=O | 1 to 25
33 | COCCNc1nc(-c2nccn2C)nc2sc(-c3ccccc3)c(-c3ccccc3)c12 [drawing 3879] | 76 to 100
34 | O=C(NCCc1cnc(O)nc1)c1csc2nc(-c3ccccn3)nc(N3CCSCC3)c12 [drawing 3752] | 51 to 75
35 | COCCCCNC(=O)c1csc2nc(-c3ccccn3)nc(O)c12 | 1 to 25
36 | CCC1N=C(C)C=C1c1csc2c(O)nc(-c3ccccn3)nc12 (stereo not shown) | 51 to 75
37 | CN(C)CCOc1cccc(-c2csc3c(O)nc(-c4ccccn4)nc23)c1 | 76 to 100
38 | Oc1nc(-c2ccccn2)nc2c(-c3ccccc3C(F)F)csc12 | 76 to 100
39 | COC(=O)c1c(C)sc2nc(-c3ccccn3)nc(N)c12 | 25 to 50
40 | O=C(c1csc2c(O)nc(-c3ccccn3)nc12)N1CCNC(c2ccc(Cl)cc2)C1 (stereo not shown) | 76 to 100

Tested on: IL6
Test: Mouse IL6 quantification assay (LPS-stimulated RAW 264.7, ELISA)
Type: cell-based
Details: 30 μM; RAW 264.7 murine leukemia virus transformed macrophage cell lines, LPS stimulation
Method: as §1, §2, §3

Row | SMILES | IL-6 % Inhibition at 30 μM
41 | Cc1sc2c(O)nc(-c3ccccn3)nc2c1-c1ccccc1 | C (C = 51-75% inhibition)

Same assay, conditions: Mus musculus, RAW264.7, 30 μM; RAW 264.7 murine leukemia virus transformed macrophage cell lines, LPS stimulation; read-out: IL-6 % Inhibition at 30 μM

Row | SMILES | inhibition at 30 µM [%]
42 | OC[C@H]1O[C@@H](c2csc3c2N=C(c2ccccn2)NC3O)[C@H](O)[C@@H]1O (stereo partly shown) [drawing 2388] | 1 to 25
43 | Cc1cc2nc(-c3ccccn3)nc(O)c2s1 [drawing 2263] | 1 to 25
44 | Cc1sc2c(N)nc(-c3ccccn3)nc2c1-c1ccccc1Cl | 51 to 75
45 | Oc1nc(-c2ccccn2)nc2c(-c3cccnc3)c(C(F)(F)F)sc12 | 51 to 75
46 | CC(C)Cc1csc2c(N)nc(-c3ccccn3)nc12 | 76 to 100
47 | O=C(O)c1csc2nc(-c3ccccn3)nc(O)c12 | 1 to 25
48 | Nc1nc(-c2ccccn2)nc2c(C3CCCC3)csc12 | 51 to 75
49 | COC(=O)c1csc2nc(-c3ccccn3)nc(O)c12 | 51 to 75
50 | Nc1nc(-c2ccccn2)nc2c(C3CCCCC3)csc12 | 0
51 | Nc1cccc(-c2csc3c(N)nc(-c4ccccn4)nc23)n1 | 76 to 100
52 | COCC(C)Nc1nc(-c2ccccc2)nc2sc(-c3ccncc3)c(-c3ccccc3)c12 (stereo not shown) | 0
53 | O=C(NCCc1cnc(O)nc1)c1csc2nc(-c3ccccn3)nc(N3CCSCC3)c12 [drawing 2281] | 51 to 75
54 | COc1ccc(CCNC(=O)c2csc3nc(-c4ccccn4)nc(N4CCSCC4)c23)cn1 [drawing 2280] | 26 to 50

Molecular target: KRas G12D/Q61H double mutant (Homo sapiens (Human), UniProt P01116, G12D/Q61H)
Sequence (P01116-2 other isoform, or with tags, fused parts or gaps G12D/Q61H): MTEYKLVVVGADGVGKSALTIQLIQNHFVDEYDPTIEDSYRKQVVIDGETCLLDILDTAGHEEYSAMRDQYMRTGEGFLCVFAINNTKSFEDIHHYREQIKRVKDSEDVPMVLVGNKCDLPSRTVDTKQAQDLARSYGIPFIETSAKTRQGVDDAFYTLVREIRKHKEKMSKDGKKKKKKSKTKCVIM
Test: Ras GTP binding domain inhibition assay
Details: at 20 μM; read-out: KRas G12D Q61H % Inh.
Method: as §4, §5
By substituting KRas G12D mutant protein with KRas G12C mutant, KRas wild type, KRas Q61H mutant, KRas G12D/Q61H double mutant or KRas G12C/Q61H double mutant under the assay conditions described above, KRas G12C mutant KRas wild type, KRas Q61H mutant, KRas G12D/Q61H double mutant and KRas G12C/Q61H double mutant inhibition, respectively, were each determined.

Row | SMILES | inhibition at 20 µM [%]
55 | O=C(c1csc2c(O)nc(-c3ccccn3)nc12)N1CCN(c2ccc(O)c(O)c2)CC1 | 51 to 75
56 | O=C(NCCc1cnc(O)nc1)c1csc2nc(-c3ccccn3)nc(N3CCSCC3)c12 [drawing 3752] | 25 to 50
57 | COCCCCNC(=O)c1csc2nc(-c3ccccn3)nc(O)c12 | 1 to 25
58 | CCC1N=C(C)C=C1c1csc2c(O)nc(-c3ccccn3)nc12 (stereo not shown) | 51 to 75

Reference: patent publication US11541041B1, “Compounds that interact with the Ras superfamily for the treatment of cancers, inflammatory diseases, Rasopathies, and fibrotic disease” (Shy Therapeutics LLC, priority 2017, dated 2023)
